Reference: US20230330254A1 (Regeneron Pharmaceuticals, Inc., priority 2022, published 2023)
Like-named read-outs stand apart in the source and are kept apart here. Where a SMILES comes first, the peptide text is derived from it. [ ]: non-standard residue; d: D form. The star is where a group is joined. Bip(2'-Et,4'-O(CH2)4NH2) = CCc1cc(OCCCCN)ccc1-c1ccc(C[C@H](N)C(=O)O)cc1; Malonyl(2,2-Me2,histaminyl) = CC(C)(C(=O)NCCc1cnc[nH]1)C(=O)*; Nva(5-(3,5-Me2Ph)) = Cc1cc(C)cc(CCC[C@H](N)C(=O)O)c1; Ala(1H-tetrazol-5-yl) = N[C@@H](Cc1nnn[nH]1)C(=O)O; αMePhe(2-F) = C[C@](N)(Cc1ccccc1F)C(=O)O; Desaminohistidyl = O=C(CCc1c[nH]cn1)*; X2 = CC(C)(C(N)=O)C(=O)*; X4 = CC(C)(C(=O)O)C(=O)*; Aib = CC(C)(N)C(=O)O; NHPh = c1ccc(N*)cc1

Assays:
human GLP1R [1] = biological target: T1, human GLP1R (Homo sapiens, UniProt P43220); test: Luciferase reporter assay, HEK293/CRE-Luc/hGLP1R (Example 17); type: cell-based; parameters: engineered to express full-length human GLP1R, cynomolgus GLP1R; expressed in transfected cells; host or cells: HEK293/CRE-Luc; settings: HEK293/CRE-Luc/hGLP1R; for S/N: highest RLU / RLU of untreated wells; for EC50: payloads and linker-payloads, experiments A-E, M2361 repeated in each, read-out: EC50; for Relative Potency (% M2361 EC50) / Relative Signal:Noise (% M2361): relative to M2361 of the same experiment
T1 sequence (P43220 24-463): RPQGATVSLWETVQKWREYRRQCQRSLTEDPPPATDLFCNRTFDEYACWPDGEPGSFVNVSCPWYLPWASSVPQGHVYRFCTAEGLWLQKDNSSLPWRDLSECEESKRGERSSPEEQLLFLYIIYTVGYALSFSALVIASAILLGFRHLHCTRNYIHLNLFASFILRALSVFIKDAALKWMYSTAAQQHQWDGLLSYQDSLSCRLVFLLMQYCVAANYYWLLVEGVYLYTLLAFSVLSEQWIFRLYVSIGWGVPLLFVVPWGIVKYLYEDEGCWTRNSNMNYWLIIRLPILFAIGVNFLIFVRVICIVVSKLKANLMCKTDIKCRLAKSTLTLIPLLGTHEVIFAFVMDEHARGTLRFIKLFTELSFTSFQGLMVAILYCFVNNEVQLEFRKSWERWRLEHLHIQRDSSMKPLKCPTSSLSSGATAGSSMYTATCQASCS
Outline: (§1)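 HEK293 cells carrying a CRE-driven firefly luciferase reporter were exposed to 3-fold serial dilutions of payloads or linker-payloads (12 points, 0.2% DMSO final) for 4–6 h, then luminescence was read. EC50 came from a four-parameter logistic fit; S/N is top RLU over untreated wells, and relative potency and S/N are referenced to M2361.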

[2] = Plasma stability of payloads and linker-payloads, human plasma; type: in vitro ADME; settings: plasma, 2 μM, 37° C., read-out: Human plasma stability assay T½ (converted)
Method: The plasma stability of payloads and linker payloads of the disclosure were measured. For the assay, pooled frozen plasma (human, mouse or monkey) was thawed in cold water or a 37° C. water bath prior to experiment. Plasma was centrifuged at 4000 rpm for 5 min if any clots were observed, they were subsequently removed. If required, the pH was adjusted to 7.4±0.1. For the preparation of compounds and positive controls, a 1 mM intermediate solution was prepared by diluting 10 μL of their stock solution with 90 μL DMSO; a 1 mM intermediate solution of the positive control (Propantheline) was prepared by diluting 10 μL of its stock solution with 90 μL ultrapure water. […] 98 μL of plasma was spiked with 2 μL of dosing solution (100 μM) to achieve the final concentration of 2 μM in duplicate. Samples were then incubated at 37° C. in a water bath. […] At each time point, 400 μL of stop solution (200 ng/mL tolbutamide plus 200 ng/mL labetalol in 50% ACN/MeOH) was added to precipitate protein and mixed thoroughly. Sample plates were then centrifuged at 4,000 rpm for 10 min. An aliquot of supernatant (50 μL) was transferred from each well and mixed with 100 μL ultrapure water. The samples were then shaken at 800 rpm for approximately 10 min before submitting for LC-MS/MS analysis.

[3] = Plasma stability of payloads (t½)
human GLP1R [4] = biological target: T1, human GLP1R; test: Human GLP1R cAMP accumulation assay; type: cell-based; parameters: HEK293 cells over-expressing full length human GLP-1R were utilized; expressed in transfected cells; host or cells: HEK293 (HEK293/hGLP1R); settings: HEK293/hGLP1R cells; Table 4; read-out: cAMP EC50
Outline: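 cAMP accumulation measured after 30 min at 23° C, with 500 μM IBMX in HEPES-buffered HBSS plus 0.1% BSA, in HEK293 cells expressing full-length hGLP-1R. Levels read by D2-cAMP/antibody immunoassay via standard curve, scaled between low and high controls. EC50 fitted four-parameter over a 10-point curve.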

HEK293/CRE-Luc cells [5] = test: Luciferase reporter assay, HEK293/CRE-Luc cells without GLP1R (Example 17); type: cell-based, human; settings: HEK293/CRE-Luc cells without hGLP1R, payloads and linker-payloads; for EC50: read-out: EC50
Outline: as §1

human GLP1R [6] = biological target: T1, human GLP1R; test: Luciferase reporter assay, HEK293/CRE-Luc/hGLP1R cells (Example 11); type: cell-based; parameters: engineered to express full-length human GLP1R, cynomolgus GLP1R; expressed in transfected cells; host or cells: HEK293/CRE-Luc; settings: Table 11; Experiment A
Excerpt: (§2) To test the activity of GLP1R agonist payloads, GLP1R agonist linker-payloads (LPs), and anti-GLP1R antibody tethered drug conjugates (ATDCs) of the disclosure, a cell-based cAMP responsive luciferase reporter assay was developed. To generate the assay cell line, the firefly luciferase gene was placed under the control of a cAMP response element (CRE) located upstream of a minimal promoter and transfected into HEK293 cells and referred to herein as HEK293/CRE-Luc cells.
(§3) Three-fold serial dilutions of free payloads or LPs were prepared in 100% DMSO, transferred to fresh assay media, and added to the cells at a final constant DMSO concentration of 0.2%. The last well in the plate served as a blank control containing only the assay media and 0.2% DMSO (untreated well) and was plotted as a continuation of the 3-fold serial dilution. Four to six hours later, luciferase activity was determined after the addition of One-Glo™ reagent (Promega, Cat #E6130) to each well. Relative light units (RLUs) were measured on an Envision luminometer (PerkinElmer) and EC50 values were determined using a four-parameter logistic equation over a 12-point dose response curve (GraphPad Prism). The signal to noise (S/N) was determined by taking the ratio of the highest RLU on the dose response curve to the RLU in the untreated wells.
GLP1R agonist linker payloads were conjugated to anti-hGLP1R antibodies via N-terminal heavy or light chain Q tags. Several resulting anti-GLP1R antibody tethered drug conjugates (ATDCs) were tested for activity in the HEK293/CRE-Luc/hGLP1R reporter assay as described above for the free GLP1R payload and linker-payload agonists.

HEK293/CRE-Luc cells [7] = test: Luciferase reporter assay, HEK293/CRE-Luc cells without hGLP1R (Example 11); type: cell-based, human; settings: Table 11; Experiment A; no hGLP1R expression
Excerpt: as §2, §3

[8] = pH 7.4, tested time B (2 hrs per footnote)
[9] = pH 7.4, tested time A (1 day per footnote)

SMILES	S/N (human GLP1R [1])	EC50 (human GLP1R [1])	Relative Potency (% M2361 EC50) (human GLP1R [1])	Relative Signal:Noise (% M2361) (human GLP1R [1])	half-life at 2 µM [2, 8]	Plasma stability t½ [3]	EC50 (human GLP1R [4])	half-life at 2 µM [2, 9]	S/N (HEK293/CRE-Luc cells [5])	EC50 (HEK293/CRE-Luc cells [5])	EC50 (human GLP1R [6])	HEK293/CRE-LUC/hGLP1R Relative Potency (% P8 EC50) (human GLP1R [6])	HEK293/CRE-LUC/hGLP1R S/N (human GLP1R [6])	EC50 (HEK293/CRE-Luc cells [7])	HEK293/CRE-LUC S/N (HEK293/CRE-Luc cells [7])
CCc1cc(OCCCCN)ccc1-c1ccc(C[C@H](NC(=O)[C@H](CC(=O)O)NC(=O)[C@H](CO)NC(=O)[C@@H](NC(=O)[C@](C)(Cc2ccccc2F)NC(=O)[C@@H](NC(=O)CNC(=O)[C@@H](N)Cc2nn[nH]n2)[C@@H](C)O)[C@@H](C)O)C(=O)N[C@@H](CCCc2cc(C)cc(C)c2)C(N)=O)cc1 [P2]	306.2	19 nM	0.1%	93.4%	644 min	10.7 h	–	–	–	–	–	–	–	–	–
CCc1cc(OCCCCN)ccc1-c1ccc(C[C@H](NC(=O)[C@H](CC(=O)O)NC(=O)[C@H](CO)NC(=O)[C@@H](NC(=O)[C@](C)(Cc2ccccc2F)NC(=O)[C@@H](NC(=O)CNC(=O)[C@H](Cc2nn[nH]n2)NC(=O)C(C)(C)C(=O)O)[C@@H](C)O)[C@@H](C)O)C(=O)N[C@@H](CCCc2cc(C)cc(C)c2)C(N)=O)cc1 [P3] (X4-[Ala(1H-tetrazol-5-yl)]GT[αMePhe(2-F)]TSD[Bip(2'-Et,4'-O(CH2)4NH2)][Nva(5-(3,5-Me2Ph))]-NH2)	46.3	1.95 nM	0.3%	70.3%	–	>57.8 h	1.43 nM	> 3470 min	1.2	> 200 nM	1.95 nM	0.3%	46.3	> 200 nM	1.2
CCc1cc(OCCCCN)ccc1-c1ccc(C[C@H](NC(=O)[C@H](CC(=O)O)NC(=O)[C@H](CO)NC(=O)[C@@H](NC(=O)[C@](C)(Cc2ccccc2F)NC(=O)[C@@H](NC(=O)CNC(=O)[C@H](Cc2nn[nH]n2)NC(=O)C(C)(C)C(N)=O)[C@@H](C)O)[C@@H](C)O)C(=O)N[C@@H](CCCc2cc(C)cc(C)c2)C(N)=O)cc1 [P4] (X2-[Ala(1H-tetrazol-5-yl)]GT[αMePhe(2-F)]TSD[Bip(2'-Et,4'-O(CH2)4NH2)][Nva(5-(3,5-Me2Ph))]-NH2)	66.9	0.0837 nM	6.3%	101.8%	–	>57.8 h	0.156 nM	> 3470 min	1.6	> 200 nM	0.0837 nM	6.3%	66.9	> 200 nM	1.6
CCc1cc(OCCCCN)ccc1-c1ccc(C[C@H](NC(=O)[C@H](CC(=O)O)NC(=O)[C@H](CO)NC(=O)[C@@H](NC(=O)[C@](C)(Cc2ccccc2F)NC(=O)[C@@H](NC(=O)CNC(=O)[C@H](Cc2nn[nH]n2)NC(=O)[C@H](C)NC(=O)[C@@H](N)Cc2cnc[nH]2)[C@@H](C)O)[C@@H](C)O)C(=O)N[C@@H](CCCc2cc(C)cc(C)c2)C(N)=O)cc1 [P10] (H-HA[Ala(1H-tetrazol-5-yl)]GT[αMePhe(2-F)]TSD[Bip(2'-Et,4'-O(CH2)4NH2)][Nva(5-(3,5-Me2Ph))]-NH2)	45.1	0.014 nM	38.0%	68.6%	110 min	–	0.047 nM	–	1.2	> 200 nM	0.014 nM	38.0%	45.1	> 200 nM	1.2
CCc1cc(OCCCCN)ccc1-c1ccc(C[C@H](NC(=O)[C@H](CC(=O)O)NC(=O)[C@H](CO)NC(=O)[C@@H](NC(=O)[C@](C)(Cc2ccccc2F)NC(=O)[C@@H](NC(=O)CNC(=O)[C@H](Cc2nn[nH]n2)NC(=O)CNC(=O)CCc2c[nH]cn2)[C@@H](C)O)[C@@H](C)O)C(=O)N[C@@H](CCCc2cc(C)cc(C)c2)C(N)=O)cc1 [P12] (Desaminohistidyl-G[Ala(1H-tetrazol-5-yl)]GT[αMePhe(2-F)]TSD[Bip(2'-Et,4'-O(CH2)4NH2)][Nva(5-(3,5-Me2Ph))]-NH2)	–	0.0114 nM	–	–	–	>57.8 h	0.039 nM	> 3470 min	–	–	0.0114 nM	–	–	–	–
CCc1cc(OCCCCN)ccc1-c1ccc(C[C@H](NC(=O)[C@H](CC(=O)O)NC(=O)[C@H](CO)NC(=O)[C@@H](NC(=O)[C@](C)(Cc2ccccc2F)NC(=O)[C@@H](NC(=O)CNC(=O)[C@H](Cc2nn[nH]n2)NC(=O)C(C)(C)NC(=O)[C@@H](N)Cc2ccc(O)cc2)[C@@H](C)O)[C@@H](C)O)C(=O)N[C@@H](CCCc2cc(C)cc(C)c2)C(N)=O)cc1 [P19] (H-Y[Aib][Ala(1H-tetrazol-5-yl)]GT[αMePhe(2-F)]TSD[Bip(2'-Et,4'-O(CH2)4NH2)][Nva(5-(3,5-Me2Ph))]-NH2)	78.5	0.0535 nM	9.9%	119.4%	–	>57.8 h	0.156 nM	> 3470 min	1.0	> 200 nM	–	–	–	–	–
CCc1cc(OCCCCN)ccc1-c1ccc(C[C@H](NC(=O)[C@H](CC(=O)O)NC(=O)[C@H](CO)NC(=O)[C@@H](NC(=O)[C@](C)(Cc2ccccc2F)NC(=O)[C@@H](NC(=O)CNC(=O)[C@H](Cc2nn[nH]n2)NC(=O)C(C)(C)C(=O)NCCc2cnc[nH]2)[C@@H](C)O)[C@@H](C)O)C(=O)N[C@@H](CCCc2cc(C)cc(C)c2)C(=O)Nc2ccccc2)cc1 [P23] ({Malonyl(2,2-Me2,histaminyl)}-[Ala(1H-tetrazol-5-yl)]GT[αMePhe(2-F)]TSD[Bip(2'-Et,4'-O(CH2)4NH2)][Nva(5-(3,5-Me2Ph))]-NHPh)	57.1	0.00515 nM	103.0%	86.9%	644 min	–	0.198 nM	–	1.6	> 200 nM	0.00515 nM	103.0%	57.1	> 200 nM	1.6
